Test system: thrombocyte aggregation
Experiment: Inhibition of collagen-triggered thrombocyte aggregation in platelet-rich citrated plasma (turbidometry, aggregometer)
Assay type: cell-based
Conditions: Homo sapiens, 0.1 h, 37° C., response after 6 minutes, read-out: EC (limiting concentration, range of the minimum effective concentration)
Method: To determine the action as an inhibitor of thrombocyte aggregation, blood was used from healthy subjects of both sexes. 9 parts of blood were treated with one part of 3.8% strength aqueous sodium citrate solution as an anticoagulant. From this blood, platelet-rich citrated plasma (PRP)^1 is obtained (Jurgens/Beller, Klinische Methoden der Blutgerinnungsanalyse [Clinical Methods in Blood Coagulation Analysis]; Thieme Verlag, Stuttgart, 1959).
For these assays, 0.8 ml of (PRP)^1 and 0.1 ml of the active compound solution were preincubated at 37° C. in a water bath. The thrombocyte aggregation was then determined in an aggregometer at 37° C. (Therapeutische Berichte 47, 80-86, 1975) by means of turbidometry (Born, G.V.R., J. Physiol. (London), 162, 67, 1962). For this purpose, the preincubated sample was treated with 0.1 ml of collagen, an agent which triggers aggregations. The (PRP)^1 sample underwent changes in optical density, which was recorded during a period of 6 minutes, and the response was determined after 6 minutes. From this, the inhibition compared with the control is calculated as a percentage. The limiting concentration given is the range of the minimum effective concentration.

| SMILES | minimal effective concentration [µg/mL] |
| --- | --- |
| NC(=O)CCn1c2c(c3cc(F)ccc31)CC(NS(=O)(=O)c1ccc(Cl)cc1)CC2 (stereo not drawn) [Example 15] | 0.01 to 0.03 |
| CCOC(=O)CCn1c2c(c3cc(F)ccc31)CC(NS(=O)(=O)c1ccc(Cl)cc1)CC2 (stereo not drawn) [Example 8] | 0.3 to 1 |
| O=C(O)CCn1c2c(c3cc(F)cc(F)c31)CC(NS(=O)(=O)c1ccc(Cl)cc1)CC2 (stereo not drawn) [Example 4] | 0.01 to 0.03 |
